Numbered stars: 1 amine (or outer) side, 2 acyl side, 3 side chain; on linkers, the order of the positions; unused ones are H or OH. Square brackets hold non-standard residues; d marks the D form. Ends that are not written are not given here. εLys = N[C@@H](CCCCN[*:1])C(=O)[*:2]; D‑k∗gc = not defined here; K∗GC = not defined here; Ahx = NCCCCCC(=O)O
Columns and labels:
[1] = tested on: human Jurkat leukemia cells; assay: Cell accumulation (uptake) of Tc-99m-Tat-peptide complexes in Jurkat cells; assay type: cell-based; conditions: for Jurkat Cell Uptake: Table 2, radiolabeled (99mTc) peptides, net cell uptake; for effect of inhibitor on net cell uptake of the Tat-peptide metal complex: colchicine 100 ng/ml, taxol 1 μM, nocodozole 5 μg/ml, cytochalasin D 1 μM, brefeldin A 2.5 μg/ml, wortmannin 100 nM; for 20 min Uptake: [99mTc] complexes, 37° C.; for U/W Ratio: uptake/washout ratio
Protocol: Control solution for cell uptake experiments was a modified Earle's balanced salt solution (MEBSS) containing (mM): 145 Na^+, 5.4 K^+, 1.2 Ca^2+, 0.8 Mg^2+, 152 Cl^−, 0.8 H2PO4^−, 0.8 SO4^2−, 5.6 dextrose, 4.0 HEPES, and 1% bovine calf serum (vol/vol), pH 7.4±0.05. A 130 mM K^+/20 mM Cl^− solution was made by equimolar substitution of potassium methanesulfonate for NaCl as described by Piwnica-Worms et al. (J. Gen. Physiol., 81:731-748, 1983).
(§1) Characterization of accumulation of Tc-99m-peptide complex was also performed for nonadherent cell lines such as human Jurkat leukemia cells with minor modifications of methods described in the literature (Bosch et al., Leukemia, 11: 1131-1137, 1997). Transport experiments were performed in siliconized microfuge tubes and initiated by addition of 732.5 μl of cells at 2-3×10^6 cells/ml to 10 μl of buffer containing Tc-99m-peptide complex and 7.5 μl of vehicle alone or of any added drug in vehicle at 100-fold the desired concentration. The tubes were incubated in a 37° C. water bath with occasional mixing. The reaction was terminated by centrifuging 250 μl aliquots from the reaction for 10 seconds through 800 μl of a 75:25 mixture of silicon oil, density=1.050 (Aldrich) and mineral oil, density=0.875 (Acros). An aliquot of the aqueous phase was obtained to normalize extracellular concentration of the complex to cell-associated activity, then the oil and aqueous phases were aspirated and the cell pellet extracted in 0.5 ml of 1% SDS, 10 mM sodium borate. For tracer washout experiments, cells were first incubated to plateau uptake (10 min) in loading buffer (37° C.), collected by rapid centrifugation and the pellet resuspended in 50 ml MEBSS (4° C.) to clear extracellular tracer. Following another rapid spin, the cell pellet was resuspended in isotope-free MEBSS (37° C.) and the experiment terminated as above after various times in warm washout buffer. Radioactivity of the cell pellet, buffers and stocks were determined on a gamma counter (Cobra II, 130-165 keV window) and cell protein was determined by the BCA assay (Pierce). Transport data are reported as fmol Tc-complex (mg protein)^−1 (nM0)^− as previously described, with (nM0)^−1 representing total concentration of peptide conjugate in the extracellular buffer (Piwnica-Worms et al., Circulation, 82: 1826-1838, 1990).
Kinetic experiments of [^99mTc]D-Tat-peptide complexes were performed in Jurkat leukemia cells suspended in MEBSS with minor modification of the methods described in Example 6. Transport experiments were performed in siliconized microfuge tubes and initiated by addition of 732.5 μl of cells at 2-3×10^6 cells/ml to 10 μl of MEBSS containing [^99mTc]D-Tat-peptide complex and 7.5 μl of vehicle alone or of any added drug in vehicle at 100 fold the desired concentration. Unless stated otherwise, [^99mTc]D-Tat-peptide complex was added to MEBSS accompanied by a molar excess of unlabeled D-Tat-peptide as obtained directly from the labeling procedure. The final total peptide concentration was 7 nM to 8 μM (1-2 μCi/ml). The tube were incubated at 37° C. and the reaction terminated as previously described. For peptide washout experiments, cells were first incubated to plateau uptake (20 minutes) in MEBSS loading buffer at 37° C., collected by rapid centrifugation and the pellet resuspended in 50 ml of isotope-free MEBSS at 4° C. to clear extracellular tracer. Following another rapid spin, the cell pellet was resuspended in isotope-free MEBSS at 37° C. for various times and the reaction terminated as described previously. Protein assays and determination of gamma activity were as described in Example 6. Absolute concentration of total [Tc]Tat-peptide complex in solution was determined from the specific activity of Tc, based on equations of Mo/Tc generator equilibrium (Lamson et al., J. Nucl. Med., 16:639-641, 1975). […]

[2] = tested on: human Jurkat leukemia cells; assay: Washout of Tc-99m-Tat-peptide complexes from preloaded Jurkat cells; assay type: cell-based; conditions: for 30 min Washout: residual activity remaining within the cell 30 minutes after a wash in isotope-free buffer
Protocol: as §1
Kinetic experiments of [^99mTc]D-Tat-peptide complexes were performed in Jurkat leukemia cells suspended in MEBSS with minor modification of the methods described in Example 6. Transport experiments were performed in siliconized microfuge tubes and initiated by addition of 732.5 μl of cells at 2-3×10^6 cells/ml to 10 μl of MEBSS containing [^99mTc]D-Tat-peptide complex and 7.5 μl of vehicle alone or of any added drug in vehicle at 100 fold the desired concentration. Unless stated otherwise, [^99mTc]D-Tat-peptide complex was added to MEBSS accompanied by a molar excess of unlabeled D-Tat-peptide as obtained directly from the labeling procedure. The final total peptide concentration was 7 nM to 8 μM (1-2 μCi/ml). The tube were incubated at 37° C. and the reaction terminated as previously described. For peptide washout experiments, cells were first incubated to plateau uptake (20 minutes) in MEBSS loading buffer at 37° C., collected by rapid centrifugation and the pellet resuspended in 50 ml of isotope-free MEBSS at 4° C. to clear extracellular tracer. Following another rapid spin, the cell pellet was resuspended in isotope-free MEBSS at 37° C. for various times and the reaction terminated as described previously. Protein assays and determination of gamma activity were as described in Example 6. Absolute concentration of total [Tc]Tat-peptide complex in solution was determined from the specific activity of Tc, based on equations of Mo/Tc generator equilibrium (Lamson et al., J. Nucl. Med., 16:639-641, 1975). Transport data are reported as pmol of peptidei (mg protein)^−1 (μM0)^−1, wherein peptidei represents total peptide conjugate within the cells and (nM0)^−1 represents concentration of total peptide conjugate in the extracellular buffer.

## 1a (GRKKRRQRRR; acetyl; AHA-K*GC chelator, amide) [Conjugate 1a]
[1]; Jurkat cells
  Jurkat Cell Uptake: 92.90 ± 21.17 pmol (mg protein)^−1 (μM0)^−1

## 2b (GRKKRRQRRR; acetyl; AHA-D-k*gc chelator, amide) [Conjugate 2b]
[1]; Jurkat cells
  Jurkat Cell Uptake: 50.39 ± 25.73 pmol (mg protein)^−1 (μM0)^−1

## 4d (Ac-RKKRRQRRR-{Ahx-K∗GC-NH2}; reading uncertain) [Conjugate 4d]
[1]; Jurkat cells
  Jurkat Cell Uptake: 90.75 ± 41.04 pmol (mg protein)^−1 (μM0)^−1

## 5e (Ac-RKKRRQRRR-{Ahx-D‑k∗gc-NH2}; reading uncertain) [Conjugate 5e]
[1]; Jurkat cells
  Jurkat Cell Uptake: 48.81 ± 2.91 pmol (mg protein)^−1 (μM0)^−1

## 8h (RKKRRQRRR-{Ahx-D‑k∗gc-NH2}; reading uncertain) [Conjugate 8h]
[1]; Jurkat cells
  Jurkat Cell Uptake: 64.35 ± 1.63 pmol (mg protein)^−1 (μM0)^−1

## 10j (GRKKRRQRRR; AHA linker, D-k*gc chelator, amide) [Conjugate 10j]
[1]; Jurkat cells
  Jurkat Cell Uptake: 106.96 ± 1.55 pmol (mg protein)^−1 (μM0)^−1

## 12l (RKKRRQRRR; not fully specified; biotin; AHA-K*GC chelator, amide) [Conjugate 12l]
[1]; Jurkat cells
  Jurkat Cell Uptake: 51.07 ± 11.78 pmol (mg protein)^−1 (μM0)^−1

## 28 (Ac-RRRRRRR-{Ahx-D‑k∗gc-NH2}; reading uncertain) [Conjugate 28]
[1]; Jurkat cells
  Jurkat Cell Uptake: 34.73 ± 6.99 pmol (mg protein)^−1 (μM0)^−1

## 30 (Ac-RRRRRRRR-{Ahx-D‑k∗gc-NH2}; reading uncertain) [Conjugate 30]
[1]; Jurkat cells
  Jurkat Cell Uptake: 59.02 ± 5.52 pmol (mg protein)^−1 (μM0)^−1

## 32 (Ac-RRRRRRRRR-{Ahx-D‑k∗gc-NH2}; reading uncertain) [Conjugate 32]
[1]; Jurkat cells
  Jurkat Cell Uptake: 129.11 ± 69.01 pmol (mg protein)^−1 (μM0)^−1

## COc1cc2c(c(OC)c1OC)-c1ccc(OC)c(=O)cc1[C@@H](NC(C)=O)CC2 [Colchicine, reference compound]
[1]; Jurkat cells, data not shown
  effect of inhibitor on net cell uptake of the Tat-peptide metal complex: no significant effect

## C[C@H]1CCC/C=C/[C@@H]2C[C@H](O)C[C@H]2[C@H](O)/C=C/C(=O)O1 [brefeldin A, reference compound]
[1]; Jurkat cells, data not shown
  effect of inhibitor on net cell uptake of the Tat-peptide metal complex: no significant effect

## C=C1[C@@H](C)[C@H]2[C@H](Cc3ccccc3)NC(=O)[C@]23[C@H](OC(C)=O)/C=C/[C@@](C)(O)C(=O)[C@@H](C)C/C=C/[C@H]3[C@@H]1O [cytochalasin D, reference compound]
[1]; Jurkat cells, data not shown
  effect of inhibitor on net cell uptake of the Tat-peptide metal complex: no significant effect

## COC(=O)Nc1nc2ccc(C(=O)c3cccs3)cc2n1C [nocodozole, reference compound]
[1]; Jurkat cells, data not shown
  effect of inhibitor on net cell uptake of the Tat-peptide metal complex: no significant effect

## CC(=O)O[C@H]1C(=O)[C@@]2(C)[C@H]([C@H](OC(=O)c3ccccc3)[C@]3(O)C[C@H](OC(=O)[C@H](O)[C@@H](NC(=O)c4ccccc4)c4ccccc4)C(C)=C1C3(C)C)[C@]1(OC(C)=O)CO[C@@H]1C[C@@H]2O [taxol, reference compound]
[1]; Jurkat cells, data not shown
  effect of inhibitor on net cell uptake of the Tat-peptide metal complex: no significant effect

## COC[C@H]1OC(=O)c2coc3c2[C@@]1(C)C1=C(C3=O)[C@@H]2CCC(=O)[C@@]2(C)C[C@H]1OC(C)=O [wortmannin, reference compound]
[1]; Jurkat cells, data not shown
  effect of inhibitor on net cell uptake of the Tat-peptide metal complex: no significant effect

## Acetyl- GRKKRRQRRR-AHA- εKGC-amide [Conjugate 1]
[1]; Jurkat cells
  20 min Uptake: 77.93 pmol (mg protein)^−1 (μM0)^−1
  U/W Ratio: 3.2
[2]
  30 min Washout: 24.26 pmol (mg protein)^−1 (μM0)^−1

## acetyl-GRKKRRORRR-AHA-εKGC-amide(Tc^v-99m) trifluoroacetate [Example 2]
[1]; 130 mM K+/20 mM Cl− and 1 μg/ml valinomycin, data not shown
  net uptake under isoelectric conditions compared to control buffer: not decreased
[1]; 4° C., Jurkat cells
  net accumulation in ice-cold buffer: only modestly inhibited
[1]; Jurkat cells
  time to approach plateau accumulation: ≤ 2 min
  20 min Uptake: 61.73 pmol (mg protein)^−1 (μM0)^−1
  U/W Ratio: 5.6
[1]; Jurkat cells continuously exposed to the complex
  time plateau (quasi-steady state) was maintained: at least 1 hour
[1]; Jurkat cells, n=4
  Steady-state value of accumulation: 116±3 fmol (mg protein)^−1 (nM0)^−1
[1]; given a typical cell water space of 4 μl (mg protein)^−1
  in/out ratio: ~30
[1]; plateau accumulation after 10 minutes, 7 nM to 8 μM, curve fitting
  extracellular concentration of half-maximal accumulation: ~3 µM
[1]; within 2 minutes, extracellular concentration of peptide 950 nM, Jurkat cells
  cell accumulation complete: 90%
[2]
  30 min Washout: 10.99 pmol (mg protein)^−1 (μM0)^−1
[2]; slowly exchanging or retaining compartment after washout
  residual level of peptide remaining in cells: < 10 % of peak activity
[2]; within 20 minutes, preloaded Jurkat cells
  washout complete: ~90%

## acetyl-GRKKRRQRRR-GDEVDG-εKGC-amide (Ac-GRKKRRQRRRGDEVDG[εLys]GC-NH2; SMILES CC(=O)NCC(=O)N[C@@H](CCCNC(=N)N)C(=O)N[C@@H](CCCCN)C(=O)N[C@@H](CCCCN)C(=O)N[C@@H](CCCNC(=N)N)C(=O)N[C@@H](CCCNC(=N)N)C(=O)N[C@@H](CCC(N)=O)C(=O)N[C@@H](CCCNC(=N)N)C(=O)N[C@@H](CCCNC(=N)N)C(=O)N[C@@H](CCCNC(=N)N)C(=O)NCC(=O)N[C@@H](CC(=O)O)C(=O)N[C@@H](CCC(=O)O)C(=O)N[C@H](C(=O)N[C@@H](CC(=O)O)C(=O)NCC(=O)NCCCC[C@H](N)C(=O)NCC(=O)N[C@@H](CS)C(N)=O)C(C)C) [Example 8]
[1]; Jurkat cells
  20 min Uptake: 317.92 pmol (mg protein)^−1 (μM0)^−1
  U/W Ratio: 6.2
[2]
  30 min Washout: 50.87 pmol (mg protein)^−1 (μM0)^−1
